{"source": "paper PMC9465256", "about": "“Discovering monoacylglycerol lipase inhibitors by a combination of fluorogenic substrate assay and activity-based protein profiling” (Frontiers in Pharmacology, 2022)", "key": {"B16-F10 cells": {"test_system": "B16-F10 cells", "assay": "Cell viability assay (CCK-8), B16-F10", "type": "cell-based", "conditions": "for IC50: Mus musculus, read-out: Antiproliferation activity (pIC50 ± SEM) B16-F10 (converted)", "procedure": "(§1) Various cancer cell lines, including human colon cancer cell line HT-29, ovarian cell line OVCAR-3, melanoma cell line B16-F10, skin squamous cancer cells A431, cervical cancer cells Hela, lung cancer cell lines A549, H1975, and HCC827, were purchased from American type culture collection (ATCC). A431, H1975, B16-F10, OVCAR-3, HT-29, HCC827, Hela, and A549 cells were cultured in Dulbecco’s modified Eagle medium (DMEM, Gibco) containing 10% fetal bovine serum (FBS, Gibco), penicillin (100 U/ml) and streptomycin (100 μg/ml). All cell lines were maintained in a humidified 37°C incubator with 5% CO2. The medium was refreshed every 2–3 days and the cells were passaged at ∼90% confluence by adding the fresh medium, followed by vigorously pipetting the resuspend cells. Of note, the cells were only washed with PBS when a significant number of dead cells were observed.\n(§2) The antiproliferation activity of the compounds against the cancer cell lines was evaluated using Cell Counting Kit-8. Briefly, cells (∼1,000 per well) in 100 µl of culture medium were plated in a 96-well plate for 24 h and 100 µl of medium with different concentrations of the tested compounds was added to each well for 48 h. Then 10 μl of CCK8 solution (#CK04, Dojindo) was added and incubated at 37°C for 2 h. The absorbance of each well was measured with a plate reader (BioTeck) at 450 nm. Cell viability was calculated as follows: cell viability (%) = [(As-Ab)/(Ac-Ab)] × 100. Among them, As represents the absorbance of experimental wells, Ab represents the absorbance of blank wells and Ac represents the absorbance of control wells. The experiments were repeated at least three times and IC50 values were determined by plotting a log(inhibitor) v. s normalized response (Variable slope) dose–response curve generated using GraphPad Prism software."}, "A431 cells": {"test_system": "A431 cells", "assay": "Cell viability assay (CCK-8), A431", "type": "cell-based", "conditions": "for IC50: Homo sapiens, A-431, read-out: Antiproliferation activity (pIC50 ± SEM) A431 (converted)", "procedure": "as §1, §2"}, "H1975 cells": {"test_system": "H1975 cells", "assay": "Cell viability assay (CCK-8), H1975", "type": "cell-based", "conditions": "for IC50: Homo sapiens, NCI-H1975, H1975, 48 h, read-out: Antiproliferation activity (pIC50 ± SEM) H1975 (converted)", "procedure": "as §1, §2"}, "Hela cells": {"test_system": "Hela cells", "assay": "Cell viability assay (CCK-8), Hela", "type": "cell-based", "conditions": "48 h; for IC50: Homo sapiens, read-out: Antiproliferation activity (pIC50 ± SEM) Hela (converted)", "procedure": "as §1, §2"}, "HCC827 cells": {"test_system": "HCC827 cells", "assay": "Cell viability assay (CCK-8), HCC827", "type": "cell-based", "conditions": "HCC827, 48 h; for IC50: Homo sapiens, read-out: Antiproliferation activity (pIC50 ± SEM) HCC827 (converted)", "procedure": "as §1, §2"}, "human MAGL": {"molecular_target": "T1, human MAGL (Homo sapiens, UniProt Q99685)", "T1 construct": "expressed in transfected cells; host or cells: HEK293T (transient transfection; membrane fraction)", "T1 sequence (Q99685 1-303)": "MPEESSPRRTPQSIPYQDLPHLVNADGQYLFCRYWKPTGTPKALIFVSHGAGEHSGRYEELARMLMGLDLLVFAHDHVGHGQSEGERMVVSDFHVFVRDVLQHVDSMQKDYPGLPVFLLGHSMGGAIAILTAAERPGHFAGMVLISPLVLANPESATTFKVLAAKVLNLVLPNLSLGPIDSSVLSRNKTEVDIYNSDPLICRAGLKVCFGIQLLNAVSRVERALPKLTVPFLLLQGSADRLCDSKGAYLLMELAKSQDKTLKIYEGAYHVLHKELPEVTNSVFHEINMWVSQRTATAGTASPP", "assay": "MAGL activity assay (AA-HNA fluorogenic substrate)", "type": "biochemical", "method_in_brief": "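Activity was taken as the fluorescence slope over 5–15 min after adding AA-HNA (10 µl of a 200 µM solution), with readings every minute for 30 min. Before substrate addition, inhibitors were incubated for 30 min with MAGL-overexpressing membranes from transfected HEK293T cells in HEPES buffer (40 mM, pH 7.5, 0.1 mg/ml BSA).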"}, "HT-29 cells": {"test_system": "HT-29 cells", "assay": "Cell viability assay (CCK-8), HT-29", "type": "cell-based, human", "conditions": "HT-29, 48 h; for IC50: Homo sapiens, read-out: Antiproliferation activity (pIC50 ± SEM) HT-29 (converted)", "procedure": "as §1, §2"}, "[1]": {"conditions": "100 µM, AA-HNA substrate assay, Supplementary Table 1, read-out: MAGL Inhibition (%)"}}, "note": "Where two headings read alike, the source gives them in different places.", "data": [{"smiles": "Cl.N=c1ccn2c(n1)O[C@H]1[C@H](O)[C@@H](CO)O[C@H]12", "note": "[compound 1, Cyclocytidine HCl]", "values": [{"measurement": "Antiproliferation activity (pIC50 ± SEM) B16-F10", "setting": "B16-F10 cells; B16-F10, 48 h, CCK-8", "result": "5.7 ± 0.2"}, {"measurement": "Antiproliferation activity (pIC50 ± SEM) A431", "setting": "A431 cells; A431, 48 h, CCK-8", "result": "<5"}, {"measurement": "Antiproliferation activity (pIC50 ± SEM) H1975", "setting": "H1975 cells; H1975, 48 h", "result": "<5"}, {"measurement": "Antiproliferation activity (pIC50 ± SEM) Hela", "setting": "Hela cells", "result": "5.0 ± 0.2"}, {"measurement": "Antiproliferation activity (pIC50 ± SEM) HCC827", "setting": "HCC827 cells", "result": "5.1 ± 0.2"}, {"measurement": "activity", "setting": "human MAGL; [1]", "result": 31.7, "unit": "%"}, {"measurement": "Antiproliferation activity (pIC50 ± SEM) HT-29", "setting": "HT-29 cells", "result": "<5"}]}, {"smiles": "O=c1cc(-c2ccc(O)cc2)oc2cc(O)cc(O)c12", "note": "[compound 9, Apigenin]", "values": [{"measurement": "inhibition of cell viability of B16-F10", "setting": "B16-F10 cells; 20 µM, 48 h", "result": 54, "unit": "%"}, {"measurement": "IC50", "setting": "B16-F10 cells; B16-F10, 48 h, CCK-8", "result": "> 10", "unit": "µM"}, {"measurement": "IC50", "setting": "A431 cells; A431, 48 h, CCK-8", "result": "> 10", "unit": "µM"}, {"measurement": "IC50", "setting": "H1975 cells", "result": "> 10", "unit": "µM"}, {"measurement": "IC50", "setting": "Hela cells", "result": "> 10", "unit": "µM"}, {"measurement": "IC50", "setting": "HCC827 cells", "result": "> 10", "unit": "µM"}, {"measurement": "inhibition at 100 µM", "setting": "human MAGL; 100 µM, AA-HNA assay", "result": "> 80", "unit": "%"}, {"measurement": "IC50", "setting": "HT-29 cells", "result": "> 10", "unit": "µM"}]}, {"smiles": "COc1ccc2cc3[n+](cc2c1OC)CCc1cc2c(cc1-3)OCO2", "note": "[compound 17, Berberine chloride]", "values": [{"measurement": "IC50", "setting": "B16-F10 cells; B16-F10, 48 h, CCK-8", "result": "> 10", "unit": "µM"}, {"measurement": "IC50", "setting": "A431 cells; A431, 48 h, CCK-8", "result": "> 10", "unit": "µM"}, {"measurement": "IC50", "setting": "H1975 cells", "result": "> 10", "unit": "µM"}, {"measurement": "IC50", "setting": "Hela cells", "result": "> 10", "unit": "µM"}, {"measurement": "IC50", "setting": "HCC827 cells", "result": "> 10", "unit": "µM"}, {"measurement": "activity at 100 µM", "setting": "human MAGL; [1]", "result": 82.8, "unit": "%"}, {"measurement": "IC50", "setting": "HT-29 cells", "result": "> 10", "unit": "µM"}]}, {"smiles": "C[C@H]1COC2=C1C(=O)C(=O)c1c2ccc2c1CCCC2(C)C", "note": "[compound 23, Cryptotanshinone]", "values": [{"measurement": "IC50", "setting": "B16-F10 cells; B16-F10, 48 h, CCK-8", "result": 7.94, "unit": "µM"}, {"measurement": "IC50", "setting": "A431 cells; A431, 48 h, CCK-8", "result": 7.94, "unit": "µM"}, {"measurement": "IC50", "setting": "H1975 cells", "result": 10, "unit": "µM"}, {"measurement": "IC50", "setting": "Hela cells", "result": 7.94, "unit": "µM"}, {"measurement": "IC50", "setting": "HCC827 cells", "result": 6.31, "unit": "µM"}, {"measurement": "inhibition at 100 µM", "setting": "human MAGL; 100 µM, AA-HNA assay", "result": "> 80", "unit": "%"}, {"measurement": "activity at 100 µM", "setting": "human MAGL; [1]", "result": 11.2, "unit": "%"}, {"measurement": "IC50", "setting": "human MAGL; printed in Figure 3B-D, read-out: IC50 (MAGL, AA-HNA assay)", "result": 11, "unit": "µM"}, {"measurement": "IC50", "setting": "human MAGL; recombinant human MAGL, AA-HNA assay, average ± SEM, n = 4, read-out: MAGL inhibition (pIC50) (converted)", "result": 12.6, "unit": "µM"}, {"measurement": "IC50", "setting": "HT-29 cells", "result": 10, "unit": "µM"}]}, {"smiles": "COc1ccc(C(C)=O)c(O)c1", "note": "[compound 64, Paeonol]", "values": [{"measurement": "IC50", "setting": "B16-F10 cells; B16-F10, 48 h, CCK-8", "result": "> 10", "unit": "µM"}, {"measurement": "inhibition of cell viability of A431", "setting": "A431 cells; 20 µM, 48 h", "result": 78, "unit": "%"}, {"measurement": "IC50", "setting": "A431 cells; A431, 48 h, CCK-8", "result": 6.31, "unit": "µM"}, {"measurement": "IC50", "setting": "H1975 cells", "result": "> 10", "unit": "µM"}, {"measurement": "IC50", "setting": "Hela cells", "result": "> 10", "unit": "µM"}, {"measurement": "IC50", "setting": "HCC827 cells", "result": "> 10", "unit": "µM"}, {"measurement": "activity at 100 µM", "setting": "human MAGL; [1]", "result": 102, "unit": "%"}, {"measurement": "IC50", "setting": "HT-29 cells", "result": "> 10", "unit": "µM"}]}]}
